Assay results: patent US20250312469A1 (CANGET BIOTEKPHARMA, priority 2024, published 2025)
Values joined by “and” are separate entries in the source; they are usually repeats but may differ in a detail not shown here. Identical values can stand only once.

Tests used:
DDX5 = DDX5 (Homo sapiens, UniProt P17844); test: Isothermal titration calorimetry (ITC), Flag-DDX5; assay type: binding; conditions: from ITC KD
in vivo = conditions: SCID, mouse, po
TA98 = test: Ames Bacterial Reverse Mutation Assay
USP2a = target: T1, USP2a (Homo sapiens, UniProt O75604); test: USP2a deubiquitinase in vitro reconstitution assay; conditions: 50 nM FL118; polyUb MdmX
T1 sequence (O75604 1-605): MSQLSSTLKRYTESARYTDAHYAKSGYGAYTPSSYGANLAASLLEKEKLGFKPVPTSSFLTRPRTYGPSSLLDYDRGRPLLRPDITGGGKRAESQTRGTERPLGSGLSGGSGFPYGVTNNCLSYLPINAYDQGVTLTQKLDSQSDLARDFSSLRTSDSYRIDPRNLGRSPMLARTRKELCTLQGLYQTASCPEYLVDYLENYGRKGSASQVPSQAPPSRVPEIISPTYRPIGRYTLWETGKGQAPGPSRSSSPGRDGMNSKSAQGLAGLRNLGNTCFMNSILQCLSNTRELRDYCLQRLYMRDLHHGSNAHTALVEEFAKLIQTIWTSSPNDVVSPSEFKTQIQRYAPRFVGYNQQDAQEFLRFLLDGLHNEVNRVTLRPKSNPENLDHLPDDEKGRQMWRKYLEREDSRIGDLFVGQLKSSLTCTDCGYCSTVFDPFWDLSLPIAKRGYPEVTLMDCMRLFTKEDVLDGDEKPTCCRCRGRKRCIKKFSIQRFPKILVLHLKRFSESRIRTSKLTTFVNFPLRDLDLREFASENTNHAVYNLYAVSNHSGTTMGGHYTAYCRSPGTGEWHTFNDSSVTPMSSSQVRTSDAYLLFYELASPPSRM

[1] = tested on: pancreatic cancer PDX14244 or PDX17624 tumors; test: Western blots of pancreatic cancer PDX tumors after oral treatment; assay type: in vivo, SCID mice; conditions: 5 mg/kg oral; day 1-3
Protocol: The collected tumor tissues were then homogenized with untrasound and analyzed using the corresponding antibodies for DDX5, Agrin, YAP1, p-FAK, FAK, Integrin and Actin via Western blots. Actin expression is the internal control of total protein loading.
For frozen prostate cancer tissue specimens and their adjacent non-tumor tissues (if any) obtained from Roswell Park pathology network, 30-50 mg of each tissue in a 1.5 Eppendorf tube containing 500 μL of 2×SDS lysis buffer containing Tris pH 6.8+4% SDS+10% Glycerol were homogenized through ultrasound treatment for 10-15 second per time with 3-6 times until tumor tissue was lysed. After all tissues were processed, 1.5 mL tubes were centrifuged at 13,000 rom in a microcentrifuge for 1-2 min and then the supernatant in each tube was transferred into a new 1.5 mL tube for protein concentration measurement (refer to the section of “Studies with Human patient tumor specimens” for more information). […] Proteins of interest were detected using Western Lightning ECL-Plus (Perkin Elmer, Waltham, MA) and visualized by various times (3-120 seconds) of exposure. Actin, tubulin and/or GAPDH were detected as the internal control to normalize total protein loading for each sample.

DU145 xenografts = test: DU145 xenograft tumor model; conditions: 8 mg/kg oral, weekly×4
human hepatocytes = test: Cell viability (MTS) after CYP induction treatment
Protocol: Vehicle controls were treated in parallel with hepatocyte culture medium. […] (2) After the CYP induction treatment, the cells were used for a cell viability assay. […] The absorbance of formazan, which is proportional to the number of viable cells, was measured spectrophotometrically using the CellTiter 96 AQueous ONE Solution Cell Proliferation Assay. […] (3) Total RNA was isolated from the treated cells using the RNeasy mini kit (Qiagen, Valencia, CA, USA) and treated with RNase-free DNase (Qiagen) following the manufacturer's protocols. The concentration of RNA was determined using a Qubit Fluorometer with a Qubit RNA HS assay kit (Invitrogen). cDNA was synthesized from up to 1 μg of the total RNA harvested from the cells using a QuantiTect RT kit (Qiagen). Analysis of gene expression by qPCR was performed using the LightCycler 480 System (Roche Diagnostics Corporation, Indianapolis, IN, USA).

Chain of DDX5 (P17844 whole entry): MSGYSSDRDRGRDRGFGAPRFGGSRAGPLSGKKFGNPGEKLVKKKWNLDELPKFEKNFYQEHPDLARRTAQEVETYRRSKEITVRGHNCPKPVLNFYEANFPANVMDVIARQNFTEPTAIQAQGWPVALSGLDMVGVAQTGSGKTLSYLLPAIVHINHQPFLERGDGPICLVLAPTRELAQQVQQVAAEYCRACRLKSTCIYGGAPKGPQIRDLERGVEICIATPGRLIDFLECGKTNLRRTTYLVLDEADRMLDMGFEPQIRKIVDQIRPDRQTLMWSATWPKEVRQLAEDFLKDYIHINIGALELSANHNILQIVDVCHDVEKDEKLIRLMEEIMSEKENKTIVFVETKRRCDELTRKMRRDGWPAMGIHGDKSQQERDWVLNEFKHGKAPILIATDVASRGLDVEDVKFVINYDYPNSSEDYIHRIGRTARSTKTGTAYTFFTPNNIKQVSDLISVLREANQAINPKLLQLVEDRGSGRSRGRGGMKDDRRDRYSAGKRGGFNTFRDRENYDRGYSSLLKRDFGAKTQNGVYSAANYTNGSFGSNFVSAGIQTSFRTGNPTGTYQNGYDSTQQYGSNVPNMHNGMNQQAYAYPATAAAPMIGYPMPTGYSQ

Compound: CCC1(O)C(=O)OCc2c1cc1n(c2=O)Cc2cc3cc4c(cc3nc2-1)OCO4 (centres unmarked) [FL118]
- FL118 binding to DDX5 versus Top1 (times stronger) (DDX5): about 10
- MTD at 4 weekly doses (in vivo): ~10 mg/kg
- bacterial strain mutation (TA98): does not induce
- mean revertant colonies over negative control (TA98; +/− S9): less than 2 fold
- Background Lawn Code (TA98; TA98, 0.010 μM +S9): 1
- Colony Counts Average (TA98; TA98, 0.010 μM +S9): 38
- Colony Counts Replicate 1-3 (TA98; TA98, 0.010 μM +S9): 32 and 37 and 45
- Background Lawn Code (TA98; TA98, 0.010 μM −S9): 1
- Colony Counts Average (TA98; TA98, 0.010 μM −S9): 38
- Colony Counts Replicate 1-3 (TA98; TA98, 0.010 μM −S9): 29 and 53 and 32
- Background Lawn Code (TA98; TA98, 0.10 μM +S9): 1
- Colony Counts Average (TA98; TA98, 0.10 μM +S9): 44
- Colony Counts Replicate 1-3 (TA98; TA98, 0.10 μM +S9): 45 and 41 and 46
- Background Lawn Code (TA98; TA98, 0.10 μM −S9): 1
- Colony Counts Average (TA98; TA98, 0.10 μM −S9): 24
- Colony Counts Replicate 1-3 (TA98; TA98, 0.10 μM −S9): 36 and 20 and 15
- Background Lawn Code (TA98; TA98, 1.0 μM +S9): 1
- Colony Counts Average (TA98; TA98, 1.0 μM +S9): 44
- Colony Counts Replicate 1-3 (TA98; TA98, 1.0 μM +S9): 35 and 45 and 52
- Background Lawn Code (TA98; TA98, 1.0 μM −S9): 1
- Colony Counts Average (TA98; TA98, 1.0 μM −S9): 23
- Colony Counts Replicate 1-3 (TA98; TA98, 1.0 μM −S9): 24 and 26 and 19
- USP2a deubiquitinase activity (USP2a): inhibited USP2a deubiquitinase activity
- DDX5, Agrin, YAP1, p-FAK, Integrin in PDX tumors [1]: more profound decrease
- antitumor efficacy (DU145 xenografts): well inhibited
- % of Vehicle-treated Cells (human hepatocytes; donor 1, 0.01 μM): 91%
- Formazan Absorbance Mean (human hepatocytes; donor 1, 0.01 μM): 1.48
- % of Vehicle-treated Cells (human hepatocytes; donor 1, 0.1 μM): 73%
- Formazan Absorbance Mean (human hepatocytes; donor 1, 0.1 μM): 1.20
- % of Vehicle-treated Cells (human hepatocytes; donor 1, 1 μM): 31%
- Formazan Absorbance Mean (human hepatocytes; donor 1, 1 μM): 0.512
- cytotoxicity (human hepatocytes; donor 1, 0.1 and 1 μM): dose-dependent cytotoxicity
- % of Vehicle-treated Cells (human hepatocytes; donor 2, 0.001 μM): 103%
- Formazan Absorbance Mean (human hepatocytes; donor 2, 0.001 μM): 1.53
- % of Vehicle-treated Cells (human hepatocytes; donor 2, 0.005 μM): 101%
- Formazan Absorbance Mean (human hepatocytes; donor 2, 0.005 μM): 1.51
- % of Vehicle-treated Cells (human hepatocytes; donor 2, 0.01 μM): 99%
- Formazan Absorbance Mean (human hepatocytes; donor 2, 0.01 μM): 1.48
- cytotoxicity (human hepatocytes; donor 2, 0.001 to 0.01 μM): No cytotoxicity
- % of Vehicle-treated Cells (human hepatocytes; donor 3, 0.025 μM): 94%
- Formazan Absorbance Mean (human hepatocytes; donor 3, 0.025 μM): 1.63
- % of Vehicle-treated Cells (human hepatocytes; donor 3, 0.05 μM): 104%
- Formazan Absorbance Mean (human hepatocytes; donor 3, 0.05 μM): 1.80
- cytotoxicity (human hepatocytes; donor 3, 0.025 and 0.05 μM): did not show cytotoxicity
